Experimental data published in US20230096766A1, “AMINO ACID HAVING FUNCTIONAL GROUP CAPABLE OF INTERMOLECULAR HYDROGEN BONDING, PEPTIDE COMPOUND CONTAINING SAME AND METHOD FOR PRODUCTION THEREOF” (Chugai Seiyaku Kabushiki Kaisha, priority 2018, published 2023).
*1 amine or outer side, *2 acyl side, *3 side chain or, on linkers, in order; H or OH if unused. Where a SMILES comes first, the peptide text is derived from it. Bridges are numbered along the chain shown (N, C = ends). [ ]: non-standard residue; d: D form. The star is where a group is joined. Phe(3-OMe,4-CONHMs) = COc1cc(C[C@H](N)C(=O)O)ccc1C(=O)NS(C)(=O)=O; Pro(4,4-F2)ψ(CH2) = FC1(F)CN[C@H](C*)C1; Ethyl(2-morpholino) = C1CN(CC*)CCO1; Propyl(2,2-Me2,3-OH) = CC(C)(CO)C*; NMeF = CN[C@@H](Cc1ccccc1)C(=O)O; NMeGABA = CN(CCCC(=O)[*:2])[*:1]; NMeI = CC[C@H](C)[C@H](NC)C(=O)O; CH2CH(OH)CF3 = OC(C*)C(F)(F)F; NMeL = CN[C@@H](CC(C)C)C(=O)O; Butyl(3S-OH) = C[C@H](O)CC*; NMeV = CN[C@H](C(=O)O)C(C)C; NMeAbu = CC[C@H](NC)C(=O)O; NMeA = CN[C@@H](C)C(=O)O; Piperidide = C1CCN(*)CC1; dNMeA = CN[C@H](C)C(=O)O; NBuGly = CCCCNCC(=O)O; Sar = CNCC(=O)O; tBu = CC(C)(C)*

Assay: Membrane permeability test of cyclic peptides (Caco-2, modified/improved method of WO 2018/124162)
Details: human
[1] = Caco-2, Caco-2 (membrane permeability), Table 10, cyclic peptides containing Ser(S-4-F2-Pyrro-Me) (G) or Nva(2-R-4-F2-Pyrro) (H)
[2] = Caco-2, Caco-2 (cm/sec), membrane permeability of cyclic peptides, Caco-2

CC[C@H](C)[C@@H]1NC(=O)[C@H](CC(C)C)N(C)C(=O)[C@H](COC(C)(C)C)NC(=O)[C@H](Cc2ccccc2)N(C)C(=O)[C@H](Cc2ccccc2)N(C)C(=O)[C@H](COCC(O)C(F)(F)F)NC(=O)[C@H](CC)N(C)C(=O)CCCN(C)C(=O)C[C@@H](C(=O)N2CCCCC2)NC(=O)[C@H](CC(C)C)N(C)C(=O)[C@H](CC(C)C)N(C)C1=O (stereo partly drawn) [Compound C13] ([NMeGABA][NMeAbu]S(CH2CH(OH)CF3)[NMeF][NMeF]S(tBu)[NMeL]I[NMeL][NMeL]D-Piperidide; lactam N-11)
Papp (Caco-2, Caco-2 (membrane permeability), Table 6, cyclic peptides containing Ser(1-CF3-EtOH) (C) or Hnl(7-F3-6-OH) (D)): 2.6 nm/s

CCCCN1CC(=O)N(C)[C@@H](CC(C)C)C(=O)N[C@@H](COC[C@@H]2CC(F)(F)CN2)C(=O)N(C)[C@@H](CC(C)C)C(=O)N(C)[C@@H](CC(C)C)C(=O)N[C@H](C(=O)N2CCCCC2)CC(=O)N[C@H](C(C)C)C(=O)N(C)[C@@H](Cc2ccccc2)C(=O)N[C@@H](CC(C)C)C(=O)N(C)[C@@H](CC)C(=O)N[C@@H]([C@@H](C)O)C1=O [Compound G01] ([dV][NMeF]L[NMeAbu]T[NBuGly][NMeL]S(Pro(4,4-F2)ψ(CH2))[NMeL][NMeL]D-Piperidide; lactam N-11)
Papp [1]: 5.3 nm/s

CC[C@H](C)[C@H]1C(=O)N[C@@H]([C@@H](C)O)C(=O)N(C)CC(=O)N(C)[C@@H](CC)C(=O)N[C@H](C(=O)N2CCCCC2)CC(=O)N(C)[C@@H](CC(C)C)C(=O)N[C@@H](Cc2ccc(C(=O)NS(C)(=O)=O)c(OC)c2)C(=O)N(C)[C@@H](CC(C)C)C(=O)N(C)[C@@H](Cc2ccccc2)C(=O)N[C@@H](CC(C)C)C(=O)N(C)[C@@H](CC(C)C)C(=O)N1C [AP139] ([NMeL][Phe(3-OMe,4-CONHMs)][NMeL][NMeF]L[NMeL][NMeI]T[Sar][NMeAbu]D-Piperidide; lactam N-11)
Papp [2]: < 2.5 nm/s

CCCCN1CC(=O)N(C)[C@@H](CC(C)C)C(=O)N[C@H](C(=O)N2CCCCC2)CC(=O)N(C)[C@@H](CC)C(=O)N[C@@H](CC(C)C)C(=O)N(C)[C@@H](CC(C)C)C(=O)N(C)[C@@H](Cc2ccccc2)C(=O)N[C@@H](COC[C@@H]2CC(F)(F)CN2)C(=O)N(C)[C@@H](CC)C(=O)N(C)[C@@H](CC(C)C)C(=O)N[C@@H]([C@@H](C)O)C1=O [Compound G04] ([NMeAbu]L[NMeL][NMeF]S(Pro(4,4-F2)ψ(CH2))[NMeAbu][NMeL]T[NBuGly][NMeL]D-Piperidide; lactam N-11)
Papp [1]: 18 nm/s

CC[C@H](C)[C@@H]1NC(=O)[C@H](CC(C)C)N(C)C(=O)CCCN(C)C(=O)C[C@@H](C(=O)N2CCCCC2)NC(=O)[C@H](CC(C)C)N(C)C(=O)[C@H](CC(C)C)N(C)C(=O)[C@H](COCCN2CCOCC2)NC(=O)[C@H](CC(C)C)N(C)C(=O)[C@H](COC(C)(C)C)NC(=O)[C@H](CC)N(C)C(=O)[C@H](Cc2ccccc2)N(C)C1=O [pd485] ([NMeGABA][NMeL]I[NMeF][NMeAbu]S(tBu)[NMeL]S(Ethyl(2-morpholino))[NMeL][NMeL]D-Piperidide; lactam N-11)
Papp (Caco-2, Caco-2, Papp, membrane permeability, cyclic peptides comprising MeAbu(pip-4-F2), MeAbu(Mor), Ser(Et-2-Mor), MeAbu(pip-3-F2) or Abu(5-Oxo-Odz) (Table 29)): 12 nm/s

CC[C@H](C)[C@@H]1NC(=O)[C@H](CC(C)C)N(C)C(=O)[C@H](C)N(C)C(=O)[C@H]([C@@H](C)O)NC(=O)[C@H](Cc2ccccc2)N(C)C(=O)[C@H](C)N(C)C(=O)[C@@H](C)N(C)C(=O)C[C@@H](C(=O)N(C)[C@@H](Cc2ccccc2)C(=O)N(C)[C@@H](Cc2ccccc2)C(=O)N[C@@H](C)C(=O)N2CCCCC2)NC(=O)[C@H](C(C)C)N(C)C(=O)[C@H](CC(C)C)N(C)C1=O [pd201] ([dNMeA][NMeA][NMeF]T[NMeA][NMeL]I[NMeL][NMeV]D[NMeF][NMeF]A-Piperidide; lactam N-10)
Papp (Caco-2, Caco-2 (cm/sec), Table 36, Papp, sequences having Papp ≥ 1.0 × 10^−6 at ARC = 3): 23 nm/s

CC(C)C[C@@H]1NC(=O)[C@H](Cc2ccccc2)N(C)C(=O)[C@H](CC(C)C)N(C)C(=O)[C@H](COCC(C)(C)CO)NC(=O)[C@H](CC(C)C)N(C)C(=O)C[C@@H](C(=O)N2CCCCC2)NC(=O)[C@H](CC(C)C)N(C)C(=O)CN(C)C(=O)[C@H]([C@@H](C)O)NC(=O)[C@H](CC(C)C)N(C)C(=O)[C@H](Cc2ccccc2)N(C)C1=O [AP125] ([NMeL]S(Propyl(2,2-Me2,3-OH))[NMeL][NMeF]L[NMeF][NMeL]T[Sar][NMeL]D-Piperidide; lactam N-11)
Papp [2]: 7.4 nm/s

CCCCN1CC(=O)N(C)[C@@H](CC(C)C)C(=O)N[C@H](C(=O)N2CCCCC2)CC(=O)N(C)[C@@H](C(C)C)C(=O)N[C@@H](CC(C)C)C(=O)N(C)[C@@H](CC(C)C)C(=O)N(C)[C@@H](Cc2ccccc2)C(=O)N[C@@H](COCC[C@H](C)O)C(=O)N(C)[C@@H](Cc2ccccc2)C(=O)N(C)[C@@H](C(C)C)C(=O)N[C@@H]([C@@H](C)O)C1=O [AP107] ([NMeV]L[NMeL][NMeF]S(Butyl(3S-OH))[NMeF][NMeV]T[NBuGly][NMeL]D-Piperidide; lactam N-11)
Papp [2]: 9.3 nm/s
